Test system: green fluorescent protein labeled Salmonella enterica serovar Typhimurium
Test: Adherence of Salmonella to porcine derived IPEC J2 jejunal cells (Example 4)
Format: cell-based
Details: bacteria pre-exposed to 0.05M methyl α-D mannoside
Protocol: Porcine derived IPEC J2 jejunal cells were seeded onto 8-well chamber slides. […] The cells were exposed to suspensions containing a green fluorescent protein labeled Salmonella enterica serovar Typhimurium previously exposed for 10 minutes to an equal volume of water or to a suspension containing 17.5 mg Nutritional Composition/ml or 0.05M methyl α-D_mannoside. After the addition of treated or untreated bacteria, the chamber slides were incubated to allow attachment to occur and the wells of each slide were washed. Slides were examined by phase contrast microscopy at 1,000× magnification, and numbers of attached cells of the green fluorescent protein labeled Salmonella enterica serovar Typhimurium were counted on 100 randomly selected IPEC J2 cells.

## CO[C@H]1O[C@H](CO)[C@@H](O)[C@H](O)[C@@H]1O [methyl α-D mannoside, methyl α-D-mannoside]
  Salmonella binding to the IPEC J2 cells: no effect

Source: patent US9351515B2, “Nutritional composition and methods of making and using same” (Georgia-Pacific Panel Products LLC, priority 2009, dated 2016)
